In PubChem BioAssay AID256 (DTP/NCI, 2004):
Values joined by “and” are separate entries in the source; they are usually repeats but may differ in a detail not shown here. Identical values can stand only once. Toxic doses and inconclusive results are not listed. Rule for the calls: active = survival T/C of 150% or more; inactive = T/C below 125% in these data.

System: CD2F1 mice, L1210 leukemia ip, survival T/C
Experiment: NCI In Vivo Anticancer Drug Screen. Data for tumor model L1210 Leukemia (intraperitoneal) in CD2F1 (CDF1) mice
Settings: higher = longer survival
How it was run: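 Read-out first: treated-group measurement over vehicle-control measurement, expressed as a ratio. Animals bore a transplanted tumor line and were dosed with compound or vehicle.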

[1] = endpoint: mean survival time, dose: 150.0 mg/kg/injection, schedule: Q01DX001 (ip), vehicle: saline
[2] = endpoint: mean survival time, dose: 100.0 mg/kg/injection, schedule: Q01DX009 (ip), vehicle: saline with Tween-80
[3] = endpoint: mean survival time, dose: 100.0 mg/kg/injection, schedule: Q04DX003 (ip), vehicle: saline with Tween-80
[4] = endpoint: mean survival time, dose: 200.0 mg/kg/injection, schedule: Q01DX009 (ip), vehicle: saline with Tween-80
[5] = endpoint: mean survival time, dose: 200.0 mg/kg/injection, schedule: Q04DX003 (ip), vehicle: saline with Tween-80
[6] = endpoint: mean survival time, dose: 400.0 mg/kg/injection, schedule: Q01DX009 (ip), vehicle: saline with Tween-80
[7] = endpoint: mean survival time, dose: 400.0 mg/kg/injection, schedule: Q04DX003 (ip), vehicle: saline with Tween-80
[8] = endpoint: mean survival time, dose: 100.0 mg/kg/injection, schedule: Q04DX002 (ip), vehicle: saline with Tween-80
[9] = endpoint: mean survival time, dose: 200.0 mg/kg/injection, schedule: Q04DX002 (ip), vehicle: saline with Tween-80
[10] = endpoint: mean survival time, dose: 400.0 mg/kg/injection, schedule: Q04DX002 (ip), vehicle: saline with Tween-80
[11] = endpoint: mean survival time, dose: 100.0 mg/kg/injection, schedule: Q01DX009 (ip), vehicle: saline
[12] = endpoint: mean survival time, dose: 200.0 mg/kg/injection, schedule: Q01DX009 (ip), vehicle: saline

Measured: T/C

CC(/C=C/C=C/c1ccccc1)=N\O
inactive: endpoint: mean survival time, dose: 100.0 mg/kg/injection, schedule: Q01DX001 (ip), vehicle: Klucel (hydroxypropylcellulose) (HPC) 101 % of control | endpoint: mean survival time, dose: 200.0 mg/kg/injection, schedule: Q01DX001 (ip), vehicle: Klucel (hydroxypropylcellulose) (HPC) 110 % of control | endpoint: mean survival time, dose: 400.0 mg/kg/injection, schedule: Q01DX001 (ip), vehicle: Klucel (hydroxypropylcellulose) (HPC) 104 % of control

CCSC(=S)S
inactive: endpoint: mean survival time, dose: 75.0 mg/kg/injection, schedule: Q04DX003 (ip), vehicle: saline 104 % of control | endpoint: mean survival time, dose: 150.0 mg/kg/injection, schedule: Q04DX003 (ip), vehicle: saline 98 % of control | endpoint: mean survival time, dose: 300.0 mg/kg/injection, schedule: Q04DX003 (ip), vehicle: saline 104 % of control

COc1cccc2c1C(=O)c1c(O)c3c(c(O)c1C2=O)C[C@@](O)(/C(C)=N/NC(=O)c1cccc([N+](=O)[O-])c1)C[C@@H]3OC1CC(N)C(O)C(C)O1 (stereo partly specified)
inactive: endpoint: mean survival time, dose: 2.0 mg/kg/injection, schedule: Q01DX009 (ip), vehicle: water 121 % of control | endpoint: mean survival time, dose: 4.0 mg/kg/injection, schedule: Q01DX009 (ip), vehicle: water 121 % of control | endpoint: mean survival time, dose: 16.0 mg/kg/injection, schedule: Q01DX009 (ip), vehicle: water 98 % of control

C[n+]1ccc2ccccc2c1
inactive: endpoint: mean survival time, dose: 75.0 mg/kg/injection, schedule: Q01DX001 (ip), vehicle: saline 103 % of control | [1] 103 % of control

O=C1C2C(C(=O)N1c1ccc(OCc3ccccc3)cc1)C1c3ccccc3C2C2CCCCN21 (stereo unspecified)
inactive: endpoint: mean survival time, dose: 25.0 mg/kg/injection, schedule: Q01DX009 (ip), vehicle: water 100 % of control | endpoint: mean survival time, dose: 50.0 mg/kg/injection, schedule: Q01DX009 (ip), vehicle: water 86 % of control

CCCCCCSC(=O)NC(C)=O
inactive: [2] 92 % of control | [3] 91 % of control | [4] 94 % of control | [5] 94 % of control | [6] 106 % of control | [7] 94 % of control

CNC(=O)OCC1C(=O)C2C(CN(C)C3=C1C(=O)C(N)=C(C)C3=O)N2C (stereo unspecified)
inactive: endpoint: mean survival time, dose: 83.0 mg/kg/injection, schedule: Q01DX001 (ip), vehicle: carboxymethylcellulose (CMC) 106 % of control | endpoint: mean survival time, dose: 125.0 mg/kg/injection, schedule: Q01DX001 (ip), vehicle: carboxymethylcellulose (CMC) 102 % of control | endpoint: mean survival time, dose: 187.0 mg/kg/injection, schedule: Q01DX001 (ip), vehicle: carboxymethylcellulose (CMC) 118 % of control

c1cnc(NCCSSCCNc2ncccn2)nc1
inactive: [2] 91 % of control | [3] 97 % of control | [4] 89 % of control | [5] 97 % of control | [6] 91 % of control | [7] 96 % of control

NC1CC[N-]CC1.NC1CC[N-]CC1.NC1CC[N-]CC1.NC1CC[N-]CC1.[Cl][Rh][Cl]
inactive: endpoint: mean survival time, dose: 6.25 mg/kg/injection, schedule: Q04DX003 (ip), vehicle: saline with Tween-80 98 % of control | endpoint: mean survival time, dose: 12.5 mg/kg/injection, schedule: Q04DX003 (ip), vehicle: saline with Tween-80 101 % of control | endpoint: mean survival time, dose: 25.0 mg/kg/injection, schedule: Q04DX003 (ip), vehicle: saline with Tween-80 95 % of control

O=C(c1ccccc1)C1CC1C(=O)c1ccccc1 (stereo unspecified)
inactive: [8] 100 % of control | [9] 112 % of control | [10] 100 % of control

Nc1nc(NNC(=O)CCCO)c2nonc2n1
inactive: endpoint: mean survival time, dose: 9.4 mg/kg/injection, schedule: Q01DX005 (ip), vehicle: other 97 % of control | endpoint: mean survival time, dose: 18.8 mg/kg/injection, schedule: Q01DX005 (ip), vehicle: other 109 % of control | endpoint: mean survival time, dose: 37.5 mg/kg/injection, schedule: Q01DX005 (ip), vehicle: other 105 % of control | endpoint: mean survival time, dose: 75.0 mg/kg/injection, schedule: Q01DX005 (ip), vehicle: other 105 % of control | endpoint: mean survival time, dose: 150.0 mg/kg/injection, schedule: Q01DX005 (ip), vehicle: other 105 % of control

C[n+]1ccccc1
inactive: [11] 97 % of control | endpoint: mean survival time, dose: 100.0 mg/kg/injection, schedule: Q04DX002 (ip), vehicle: other 96 % of control | [12] 101 % of control | endpoint: mean survival time, dose: 200.0 mg/kg/injection, schedule: Q04DX002 (ip), vehicle: other 93 % of control | endpoint: mean survival time, dose: 400.0 mg/kg/injection, schedule: Q01DX009 (ip), vehicle: saline 97 % of control | endpoint: mean survival time, dose: 400.0 mg/kg/injection, schedule: Q04DX002 (ip), vehicle: other 96 % of control

O=C1OC(c2ccccc2)=N/C1=C\c1cccc(O)c1
inactive: [2] 104 % of control | [4] 109 % of control | [6] 98 % of control

S=C(S)Nc1ccc(Cc2ccc(NC(=S)S)cc2)cc1
inactive: [2] 98 % of control | [4] 96 % of control | [6] 93 % of control

COC(=O)C(C)C1CCC2C3CCC4CC(OC(C)=O)CCC4(C)C3CC(OC(C)=O)C12C (stereo unspecified)
inactive: endpoint: mean survival time, dose: 100.0 mg/kg/injection, schedule: Q01DX001 (ip), vehicle: saline with Tween-80 95 % of control | endpoint: mean survival time, dose: 200.0 mg/kg/injection, schedule: Q01DX001 (ip), vehicle: saline with Tween-80 103 % of control | endpoint: mean survival time, dose: 400.0 mg/kg/injection, schedule: Q01DX001 (ip), vehicle: saline with Tween-80 94 % of control

CC1(C)OCC(C2OC(On3nnc4ccc(Cl)cc43)C3OC(C)(C)OC23)O1 (stereo unspecified)
inactive: endpoint: mean survival time, dose: 12.5 mg/kg/injection, schedule: Q01DX005 (ip), vehicle: distilled water + Tween-80 98 % of control | endpoint: mean survival time, dose: 25.0 mg/kg/injection, schedule: Q01DX005 (ip), vehicle: distilled water + Tween-80 96 % of control | endpoint: mean survival time, dose: 50.0 mg/kg/injection, schedule: Q01DX005 (ip), vehicle: distilled water + Tween-80 105 % of control | endpoint: mean survival time, dose: 100.0 mg/kg/injection, schedule: Q01DX005 (ip), vehicle: distilled water + Tween-80 96 % of control | endpoint: mean survival time, dose: 200.0 mg/kg/injection, schedule: Q01DX005 (ip), vehicle: distilled water + Tween-80 105 % of control

Cc1cc(C(C(N)=O)c2ccccc2)ccc1N(CCCl)CCCl (stereo unspecified)
inactive: endpoint: mean survival time, dose: 88.8 mg/kg/injection, schedule: Q01DX001 (ip), vehicle: other 122 % of control | endpoint: mean survival time, dose: 300.0 mg/kg/injection, schedule: Q01DX001 (ip), vehicle: other 104 % of control

CC(NC(=O)C(CSC(c1ccccc1)(c1ccccc1)c1ccccc1)NC(c1ccccc1)(c1ccccc1)c1ccccc1)C(=O)O (stereo unspecified)
inactive: [1] 96 % of control

CC(C)C(Br)C(=O)NCC(=O)O (stereo unspecified)
inactive: [2] 103 % of control | [4] 97 % of control | [6] 98 % of control

c1ccc(CCCNc2nnnc3ccccc23)cc1
inactive: [8] 95 % of control | [9] 103 % of control | [10] 91 % of control

NN(C(=O)c1ccc(Cl)cc1)c1ccccc1
inactive: [3] 95 % of control | [5] 92 % of control | [7] 97 % of control

CC(C)(C)C(=O)O
inactive: [11] 107 % of control | endpoint: mean survival time, dose: 100.0 mg/kg/injection, schedule: Q04DX003 (ip), vehicle: saline 89 % of control | [12] 94 % of control | endpoint: mean survival time, dose: 200.0 mg/kg/injection, schedule: Q04DX003 (ip), vehicle: saline 92 % of control | endpoint: mean survival time, dose: 400.0 mg/kg/injection, schedule: Q04DX003 (ip), vehicle: saline 93 % of control

CC(=O)OC1CSC(C(C)(C)C)SC1 (stereo unspecified)
inactive: endpoint: mean survival time, dose: 12.5 mg/kg/injection, schedule: Q04DX002 (ip), vehicle: saline with Tween-80 102 % of control | endpoint: mean survival time, dose: 25.0 mg/kg/injection, schedule: Q04DX002 (ip), vehicle: saline with Tween-80 102 % of control | endpoint: mean survival time, dose: 50.0 mg/kg/injection, schedule: Q04DX002 (ip), vehicle: saline with Tween-80 108 % of control

Cc1cc(/C=C/c2ccc3cc(N(C)C)ccc3[n+]2C)c(C)n1-c1ccccc1
inactive: endpoint: mean survival time, dose: 0.1 mg/kg/injection, schedule: Q01DX009 (ip), vehicle: saline with Tween-80 95 % of control | endpoint: mean survival time, dose: 0.2 mg/kg/injection, schedule: Q01DX009 (ip), vehicle: saline with Tween-80 95 % of control | endpoint: mean survival time, dose: 0.39 mg/kg/injection, schedule: Q01DX009 (ip), vehicle: saline with Tween-80 98 % of control | endpoint: mean survival time, dose: 0.78 mg/kg/injection, schedule: Q01DX009 (ip), vehicle: saline with Tween-80 101 % of control

COc1cc(C(C)c2cc3c(cc2OCCO)OCO3)cc(OC)c1OC (stereo unspecified)
inactive: endpoint: median survival time, dose: 25.0 mg/kg/injection, schedule: Q01DX009 (ip), vehicle: saline with Tween-80 96 % of control and 106 % of control | endpoint: median survival time, dose: 50.0 mg/kg/injection, schedule: Q01DX009 (ip), vehicle: saline with Tween-80 106 % of control and 109 % of control | endpoint: median survival time, dose: 100.0 mg/kg/injection, schedule: Q01DX009 (ip), vehicle: saline with Tween-80 106 % of control and 110 % of control
